From US10732172B1, “Methods, systems, and compositions for determining blood clot formation, and uses thereof” (President and Fellows of Harvard College, priority 2015, dated 2020)
Entries after “also recorded” stand apart in the source; their conditions may differ.

Experiments:
Assay type in all cases: cell-based, human
platelets [1] = test: Platelet coverage on TNF-α pretreated, fixed (chemopreserved) endothelium in microfluidic device, whole blood perfusion
Method: (§1) By way of example, a microfluidic device is fabricated using photolithography followed by soft lithography with polydimethysiloxane (“PDMS”). According to this example, six microfluidic devices are placed on a single PDMS mold of the size of a standard glass slide, e.g., 75×25 millimeters (“mm”). The microfluidic devices are first exposed to oxygen plasma for 30 seconds using, for example, a PE-100 benchtop plasma system from Plasma Etch. Then, the microfluidic devices are treated with 1% (3-aminopropyl)-trimethoxysilane (“APTMS”), from Sigma, in 100% anhydrous ethanol for ten minutes. After subsequent rinsing with 70% and 100% ethanol, the microfluidic devices are dried and type I collagen from rat tail, e.g., 100 micrograms/milliliter (“μg/ml) from Corning, is introduced in microchannels of the microfluidic devices.
The microfluidic devices are left overnight at 37° C. in a 5% carbon dioxide (“CO2”) incubator, after which they are rinsed with Endothelial Growth Medium-2 (“EGM-2”) from Lonza. Human Umbilical Vein Endothelial Cells (“HUVEC”) from a mixed donor, by Lonza, are kept in culture and suspended at 12.5 million cells/milliliter (“mL”) in EGM-2, after confluence. The suspension is introduced into the collagen-coated microchannels, after which the microfluidic devices are incubated upside down for 20 minutes. A fresh HUVEC suspension is then introduced in the microchannels, after which the microfluidic devices are incubated for eight hours to promote cell attachment across the channel. The microchannels are, then, rinsed with EGM-2, sometimes containing a freshly prepared solution of tumor necrosis factor (“TNF-α”), which is a recombinant from E. coli from Sigma. […]
(§2) Platelets are visualized using time-lapse fluorescence imaging (e.g., 20×, NA 0.4). A time series of a 10-frame panorama (e.g., 6 mm long×0.665 mm wide region of a microchannel), at a lapse of every 30 seconds is recorded. […]

platelets [2] = test: Platelet coverage in collagen-coated microfluidic device, whole blood perfusion; details: blood with different doses of abciximab; shear 750 sec^-1
Method: as §1
500 microliters (“μL”) of whole blood are pipetted into a fluid reservoir fitted to one end of a microchannel. Platelets are labeled with human CD41-PE antibody (e.g., 10 μL/mL from Invitrogen) that is directly added to the blood samples and incubated at room temperature for 10 minutes. […]
as §2

platelets [3] = test: Light transmission aggregometry (LTA) with ADP or collagen as agonist; details: blood treated ex vivo with abciximab, all doses; ADP 10 μM or collagen 2 μg/mL
Method: The LTA is performed in accordance with manufacturer instructions. For example, the LTA uses adenosine diphosphate (“ADP”) 10 μM and collagen 2 μg/mL from Chrono-Log.
Blood from healthy donors was treated ex vivo with abciximab or used untreated. These samples as well as clinical blood samples from subjects were centrifuged at 290 g for 10 min (no brake applied) to collect platelet rich plasma (PRP). To obtain a reference solution for each sample, PRP was centrifuged at high speed to pellet platelets (1,000 g, 10 min) and collect platelet poor plasma (PPP). CaCl2 was added to each sample at a final concentration of 1 mM to recalcify plasma before each run. Cifuni et al. “CalDAG-GEFI and protein kinase C represent alternative pathways leading to activation of integrin alphaIIbeta3 in platelets.” Blood 112, 1696-1703 (2008). LTA has then been performed at 37° C. under magnetic stirring using a Chrono-Log Corporation instrument.

abciximab
abciximab concentration at which optimal effects on platelet adhesion are observed (platelets [1]; fixed endothelium pretreated with TNF-α 5 ng/mL): ≥ 10 µg/mL | difference in platelet inhibition between 10 μg/ml and 100 μg/ml (platelets [1]; fixed endothelium pretreated with TNF-α 5 ng/ml): insignificant | platelet coverage (platelet adhesion) on fixed endothelium (platelets [1]; healthy donor whole blood with abciximab 0-100 μg/mL, endothelium pretreated with TNF-α 5 ng/mL then fixed, shear 750 s^-1): decreases with increase in abciximab drug concentration; also recorded: dose-dependent inhibition of platelet adhesion; also recorded: significant dose-dependent platelet inhibition | platelet coverage on collagen-coated microfluidic device (platelets [2]): insignificant decrease in platelet adhesion and aggregation; also recorded: small suppressive effect on platelet adhesion; also recorded: poor sensitivity | platelet aggregation by light transmission aggregometry (platelets [3]): no aggregation is observed; also recorded: virtually complete inhibition of platelet aggregation; also recorded: no platelet aggregability
